Results as given in patent US20150337349A1, “Microbiome Modulation Index” (SECOND GENOME, INC., priority 2013, published 2015).
Counter-ions that a name gives are not always drawn.

These compounds were tested on fecal microbial communities (OTUs) (assay: Microbiome Modulation Index (MMI) from 16S rRNA V4 profiling of fecal samples before and after agent administration). Conditions: oral gavage daily for 5 consecutive days at Table 1 mouse dose; day 0 vs day 5 fecal samples; MMI = d/d0 relative to control mice; variability weight gi applied.
Type: in vivo, c57bl/6 mice
Method: Twenty five agents were selected to span multiple indications (Table 1). For each agent, the effective dose for the mouse was determined through a comprehensive search of the literature (Table 1). Working formulations were created by suspending agents in 1× phosphate buffered saline (PBS).
A total of 156 six-week old c57bl/6 mice (78 males and 78 females) were housed in separate cages 5 days prior to agent administration. Animals were handled daily by caretakers during this acclimation period. Animals were fed a standard chow diet throughout the course of the study.
Animals were treated with agents via oral gavage daily for 5 consecutive days beginning on day 1. N=6 mice per agent; 3 male+3 female. Fecal samples were collected using the ‘clean catch’ method in which the mice were held by the tail, causing them to defecate. Feces were collected in a sterile tube and immediately frozen and stored at −80° C. Fecal samples were collected in the morning prior to agent administration on the following days: −1,0,4,5.
Frozen day 0 and day 5 fecal specimens corresponding to 15 treatment groups (PBS+(Table 3) were profiled using Second Genome's Microbiome Signature Discovery™ service (San Bruno, Calif.). DNA was isolated using the PowerSoil DNA Isolation Kit following the manufacturer's instructions (MoBio Laboratories, Carlsbad, Calif.). For V4 sequencing assay profiling, the V4 region of the 16S rRNA genes was amplified using fusion primers tailed with Illumina sequencing adapters and indexing barcodes according to a previously described technique (Caporaso, 2010, PMID: 20534432). For each sample, amplified products were concentrated, purified and quantified by electrophoresis using an Agilent 2100 Bioanalyzer, then pooled for sequencing using the MiSeq (Illumina, San Diego, Calif.) instrument.
Using the software QIIME (Kuczynski, 2012, PMID: 23184592) and custom scripts, sequences were quality filtered and de-multiplexed using exact matches to the supplied DNA barcodes. Resulting sequences were then clustered into reference OTUs (rOTUs) by uclust (Edgar, 2010, PMID: 20709691) matching each sequence against the Greengenes sequences pre-clustered at 97%, a practice commonly referred to as “closed-reference OTU picking”. The longest Illumina-generated sequence from each of OTUs thus formed was then used as the OTU representative sequence, and assigned taxonomic classification via mothur's bayesian classifier (Schloss, 2009, PMID: 19801464) trained against the Greengenes database. Taxonomic annotations at 80% bootstrapped confidence were applied. Total sequence counts per fecal sample were scaled to be identical. Seven samples (MDO5M027D0, MD10M057D0, Md12F07D0, MD01F006D5, MD06F035D5, MD13M074D5, and MD04F023D5) were excluded following sequence quality filtering and alignment due to low sequence yield. Taxa were filtered to those present in at least one of the samples.
MMIs were calculated for the PBS control and 14 of the tested drugs. To calculate the MMI of an agent, an intermediate value d was calculated for each mouse administered with the respective agent. The abundance of each OTU before treatment in that mouse was compared to the abundance of that OTU after treatment as in exemplary Equation 11: […]
where A1i represents the abundance of OTU i at time-point 1 (post-administration), where A0i represents the abundance of OTU i at time-point 0 (pre-administration) gi represents a variability weight applied to each OTU, discussed below.
Once d was calculated for each mouse, d values for each administered mouse are averaged, and the resulting d was compared to a reference level of change d0 in a control group of mice not administered the agent. The value d0 is determined on the basis of laboratory studies of untreated mice in similar conditions (e.g., a similar number of samples to the number of samples obtained from treated mice).
The MMI is then calculated as in exemplary Equation 12: […]
Work on `CNCCC(Oc1ccc(C(F)(F)F)cc1)c1ccccc1` (centres unmarked) [Fluoxetine_hydrochloride] yielded an MMI of 1.44.
`Cc1ccc(-c2nc3ccc(C)cn3c2CC(=O)N(C)C)cc1` [Zolpidem_tartrate] showed an MMI of 1.443.
With `Nc1ccc(O)c(C(=O)O)c1` [Mesalamine] the MMI was 1.131.
`CC(C)c1c(C(=O)Nc2ccccc2)c(-c2ccccc2)c(-c2ccc(F)cc2)n1CC[C@@H](O)C[C@@H](O)CC(=O)O` [Atorvastatin_calcium_salt_trihydrate] gave an MMI of 1.278.
Work on `CCN(CC)CCOC(=O)C1(C2CCCCC2)CCCCC1` [Dicyloamine_hydrochloride] yielded an MMI of 1.222.
For `CC[C@H]1OC(=O)[C@H](C)[C@@H](O[C@H]2C[C@@](C)(OC)[C@@H](O)[C@H](C)O2)[C@H](C)[C@@H](O[C@@H]2O[C@H](C)C[C@H](N(C)C)[C@H]2O)[C@](C)(O)C[C@@H](C)CN(C)[C@H](C)[C@@H](O)[C@]1(C)O` [Azithromycin], the MMI was 2.202.
Compound `CC(=O)Oc1ccccc1C(=O)O` [Acetylsiacylic_acid] has an MMI of 1.093.
`NCCCC(O)(P(=O)(O)O)P(=O)(O)O` [Alendronate_sodium_trihydrate] showed an MMI of 1.107.
For `OC(Cn1cncn1)(Cn1cncn1)c1ccc(F)cc1F` [Fluconazole], the MMI was 1.003.
`CC1(C)S[C@@H]2[C@H](NC(=O)[C@H](N)c3ccc(O)cc3)C(=O)N2[C@H]1C(=O)O` [Amoxycillin] gave an MMI of 2.397.
Compound `CN(C)CCOC(c1ccccc1)c1ccccc1` [Diphenhydramine_hydrochloride] has an MMI of 1.202.
In the case of `COc1ccc2[n-]c([S@@+]([O-])Cc3ncc(C)c(OC)c3C)nc2c1.COc1ccc2[n-]c([S@@+]([O-])Cc3ncc(C)c(OC)c3C)nc2c1.[Mg+2]` [Esomeprazole_magnesium_hydrate], the MMI is reported as 1.1.
`C[C@]12C=CC(=O)C=C1CC[C@@H]1[C@@H]2[C@@H](O)C[C@@]2(C)[C@H]1CC[C@]2(O)C(=O)COC(=O)CCC(=O)[O-].[Na+]` [Prednisalone_21-hemisuccinate_sodium_salt] gave an MMI of 1.262.
For `CN(C)C(=N)N=C(N)N` [Metformin_hydrochloride], the MMI was 1.628.
